Read-outs that look alike come from different tables or passages of the source.
Experiments:
[1] = target: T1, FGFR1 in recombinant human FGFR1/FGF2 complex (Homo sapiens, UniProt P11362); assay: Thermal shift assay (TSA), ΔTm of FGFR1 peak; format: binding; details: for ΔTm at 10 µM / ΔTm at 100 µM / ΔTm at 25 µM: read-out: ΔTm (° C.) −FGFR1
T1 construct: made in house; host or cells: Escherichia coli BL21 (DE3) Star
Experimental: (§1) TSA was utilized to biophysically characterize the recombinant human FGFR1/FGF2 complex in the presence or absence of selected compounds of formula (I), Compounds 1, 2a-2f, 20, 5, 60, and 8-13. Compound 1 was prepared according to the procedures described in Example 1, and the other compounds were obtained from commercial sources. The assay functions by protein denaturation over a temperature gradient. During protein unfolding, exposed hydrophobic regions bind a dye and fluoresce due to solvent relaxation effects. Changes in the melting temperature of the protein complex in the presence of each compound were monitored and compounds were screened/ranked using this method.
(§2) Thawed aliquots of purified FGF2 (1.0 mg/mL) and FGFR1 (1.6 mg/mL) proteins were mixed in a 1:1 molar ratio ([…]) on ice for 30 min at 4° C. and plated prior to the thermal shift assay (TSA).
(§3) Complex formation was verified by loading the complexed material on a size exclusion column (superdex 10 300GL S200) and observing the monodisperse peak corresponding to the FGF2/FGFR1 complex (˜ 40 kDa). Compounds described herein were screened in dose response format (0-100 μM) with the FGF2/FGFR1 complex in triplicates. FGF2/ FGFR1/compound complexes were mixed in a 1000:1 ratio with Sypro Orange dye (Sigma-Aldrich). The samples were processed using a Bio-Rad CFX C96 Touch quantitative polymerase chain reaction and run using the FRET assay settings with a heating ramp of 0.3° C./s cycling from 4 to 100° C. Data analysis was performed using the Bio-Rad CFX Manager Software (version 3.1, Bio-Rad) and changes in the melting temperature (Tm) of the complex in the presence of each compound were monitored. The results are shown in Table 9 below and also in FIG. 1 (for Compound 10).

[2] = target: T2, FGF2 in recombinant human FGFR1/FGF2 complex (Homo sapiens, UniProt P09038); assay: Thermal shift assay (TSA), ΔTm of FGF2 peak; format: binding; details: for ΔTm at 10 µM / ΔTm at 100 µM / ΔTm at 25 µM: read-out: ΔTm (° C.) −FGF2
T2 construct: made in house; host or cells: Escherichia coli BL21 (DE3) Star
T2 sequence (P09038 156-288 limits assumed): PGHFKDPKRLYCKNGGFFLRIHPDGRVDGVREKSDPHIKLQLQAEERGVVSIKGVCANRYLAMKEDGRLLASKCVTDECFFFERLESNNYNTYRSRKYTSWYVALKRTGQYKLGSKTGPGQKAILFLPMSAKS
T2 sequence (P11362 142-365 partner limits assumed): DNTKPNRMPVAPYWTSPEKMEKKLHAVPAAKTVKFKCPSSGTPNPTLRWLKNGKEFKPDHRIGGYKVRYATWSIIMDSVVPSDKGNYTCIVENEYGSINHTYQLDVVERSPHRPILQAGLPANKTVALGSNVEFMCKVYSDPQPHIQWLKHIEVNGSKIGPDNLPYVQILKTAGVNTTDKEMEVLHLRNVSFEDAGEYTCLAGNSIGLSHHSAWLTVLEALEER
Experimental: as §1, §2, §3

T1 sequence (P11362 142-365 limits assumed): as the sequence (P11362 142-365 partner limits assumed) above
T1 sequence (P09038 156-288 partner limits assumed): as the sequence (P09038 156-288 limits assumed) above

Q: What does the source list for `CCN(CC)c1ccc(/C=N/O)cc1` [Compound 5o]?
A: ΔTm at 2 µM ([1]; 2 μM compound): 3.5 °C; ΔTm at 2 µM ([2]; 2 μM compound): -1 °C

Q: For `CCN(CC)c1ccc(/C=N/NC(=O)c2ccc(O)cc2)cc1` [Compound 13oe], which ΔTm at 10 µM ([1]; 10 μM compound) is on record?
A: Its ΔTm at 10 µM is -1.5 °C.

Q: What about the ΔTm at 10 µM ([2]; 10 μM compound) of the same compound?
A: The ΔTm at 10 µM was -0.5 °C.

Q: Which results are given for `CCN(CC)c1ccc(/C=N/NC(=O)C2CCN(CCO)CC2)cc1` [Compound 13oh, (E)-N′-(4-(diethylamino)benzylidene)-1-(2-hydroxyethyl)piperidine-4-carbohydrazide]?
A: ΔTm at 10 µM ([1]; 10 μM compound): 0.6 °C; ΔTm at 10 µM ([2]; 10 μM compound): 0 °C

Q: With `O=Cc1ccc(Cl)cc1` [Compound 1c] as the compound, how does the ΔTm at 10 µM [1] read?
A: The ΔTm at 10 µM was -2.2 °C.

Q: What about the ΔTm at 10 µM [2] of the same compound?
A: Its ΔTm at 10 µM is 2 °C.

Q: With “(4-(diethylamino)phenyl)(3-(trifluoromethyl)phenyl)methanone [Compound 9ob]” as the compound, how does the “ΔTm (° C.) −FGFR1” value ([1]; 50 μM compound) read?
A: Its value is “+1.2 °C”.

Q: And the “ΔTm (° C.) −FGF2” value ([2]; 50 μM compound)?
A: The value was “+1.5 °C”.

Q: Which ΔTm at 2 µM ([1]; 2 μM compound) does the source give for `CCN(CC)c1ccc(/C=N/Nc2ccccc2)cc1` [Compound 15oc] here?
A: Its ΔTm at 2 µM is 4.3 °C.

Q: And the ΔTm at 2 µM ([2]; 2 μM compound)?
A: Its ΔTm at 2 µM is -2.4 °C.

Q: Which ΔTm at 10 µM ([1]; 10 μM compound) does the source give for `CCN(CC)c1ccc(/C=N/Nc2ccc(C#N)cc2)cc1` [Compound 15od, (E)-4-(2-(4-(diethylamino)benzylidene)hydrazineyl)benzonitrile] here?
A: The ΔTm at 10 µM was 0 °C.

Q: What about the ΔTm at 10 µM ([2]; 10 μM compound) of the same compound?
A: The ΔTm at 10 µM was -1 °C.

Q: With `CCN(CC)c1ccc(/C=N/N2CCN(C(c3ccccc3)c3ccccc3)CC2)cc1` [Compound 15oa, (E)-4-(((4-benzhydrylpiperazin-1-yl)imino)methyl)-N,N-diethylaniline] as the compound, how does the ΔTm at 100 µM ([1]; 100 μM compound) read?
A: Its ΔTm at 100 µM is 2 °C.

Q: What about the ΔTm at 100 µM ([2]; 100 μM compound) of the same compound?
A: Its ΔTm at 100 µM is -1.5 °C.

Q: Which ΔTm at 100 µM ([1]; 100 μM compound) does the source give for `O=Cc1ccc(F)cc1` [Compound 1b] here?
A: The ΔTm at 100 µM was 0 °C.

Q: What about the ΔTm at 100 µM ([2]; 100 μM compound) of the same compound?
A: The ΔTm at 100 µM was 1 °C.

Q: With `O=Cc1ccc(Br)cc1` [Compound 1d] as the compound, how does the ΔTm at 25 µM [1] read?
A: The ΔTm at 25 µM was -2.1 °C.

Q: What about the ΔTm at 25 µM [2] of the same compound?
A: The ΔTm at 25 µM was 1.6 °C.

Q: For `CCN(CC)c1ccc(/C=N/Cc2ccccc2)cc1` [Compound 4ow, (E)-4-((benzylimino)methyl)-N,N-diethylaniline], which ΔTm at 25 µM ([1]; 25 μM compound) is on record?
A: Its ΔTm at 25 µM is 4 °C.

Q: And the ΔTm at 25 µM ([2]; 25 μM compound)?
A: Its ΔTm at 25 µM is -2 °C.

Q: For “(4-(diethylamino)phenyl)(3-methoxyphenyl)methanone [Compound 9oc]”, which “ΔTm (° C.) −FGFR1” value ([1]; 2 μM compound) is on record?
A: The value was “+9.5 °C”.

Q: And the “ΔTm (° C.) −FGF2” value ([2]; 2 μM compound)?
A: The value was −5.6 °C.

Q: For `CCN(CC)c1ccc(/C=N/N(c2ccccc2)c2ccccc2)cc1` [Compound 15ob], which ΔTm at 25 µM ([1]; 25 μM compound) is on record?
A: The ΔTm at 25 µM was 0 °C.

Q: What about the ΔTm at 25 µM ([2]; 25 μM compound) of the same compound?
A: Its ΔTm at 25 µM is -1 °C.

Q: Which ΔTm at 50 µM ([1]; 50 μM compound) does the source give for `CCN(CC)c1ccc(/C=N/NC(=O)CN(C)C)cc1` [Compound 13oa, (E)-N′-(4-(diethylamino)benzylidene)-2-(dimethylamino)acetohydrazide] here?
A: Its ΔTm at 50 µM is 0 °C.

Q: What about the ΔTm at 50 µM ([2]; 50 μM compound) of the same compound?
A: Its ΔTm at 50 µM is -2.1 °C.

Q: For `O=C(c1ccccc1)c1cccc(F)c1` [Compound 9af], which ΔTm at 10 µM ([1]; 10 μM compound) is on record?
A: The ΔTm at 10 µM was 9.8 °C.

Q: What about the ΔTm at 10 µM ([2]; 10 μM compound) of the same compound?
A: Its ΔTm at 10 µM is -6 °C.

Q: What does the source list for `CCN(CC)c1ccc(C(=O)O)cc1` [Compound 17]?
A: ΔTm at 100 µM ([1]; 100 μM compound): 2.5 °C; ΔTm at 100 µM ([2]; 100 μM compound): 0 °C

Q: For “(4-(diethylamino)phenyl)(3-(trifluoromethoxy)phenyl)methanone [Compound 9om]”, which “ΔTm (° C.) −FGFR1” value ([1]; 100 μM compound) is on record?
A: The value was “+1.2 °C”.

Q: What about the “ΔTm (° C.) −FGF2” value ([2]; 100 μM compound) of the same compound?
A: The value was “+1.8 °C”.

Q: Which ΔTm at 25 µM [1] does the source give for `CCN(CC)c1ccc(C=O)cc1` [Compound 1o, 4-diethylaminobenzaldehyde] here?
A: The ΔTm at 25 µM was 5 °C.

Q: What about the ΔTm at 25 µM [2] of the same compound?
A: The ΔTm at 25 µM was -2 °C.

Q: With `CCN(CC)c1ccc(C(=O)c2ccccc2)cc1` [Compound 9oa] as the compound, how does the ΔTm at 10 µM ([1]; 10 μM compound) read?
A: Its ΔTm at 10 µM is 6 °C.

Q: What about the ΔTm at 10 µM ([2]; 10 μM compound) of the same compound?
A: The ΔTm at 10 µM was -0.3 °C.

Q: With `CCN(CC)c1ccc(/C=N/c2ccccc2)cc1` [Compound 4on] as the compound, how does the ΔTm at 25 µM ([1]; 25 μM compound) read?
A: Its ΔTm at 25 µM is 1.5 °C.

Q: What about the ΔTm at 25 µM ([2]; 25 μM compound) of the same compound?
A: Its ΔTm at 25 µM is -0.5 °C.

Q: Which results are given for `CCN(CC)c1ccc(/C=N/c2ccc(C(F)(F)F)cc2)cc1` [Compound 4oy, (E)-N, N-diethyl-4-(((4-(trifluoromethyl)phenyl)imino)methyl)aniline]?
A: ΔTm at 50 µM ([1]; 50 μM compound): 7.8 °C; melting point: 129.3 to 129.6 °C; ΔTm at 50 µM ([2]; 50 μM compound): -4.5 °C

Q: For `O=Cc1ccccc1` [Compound 1a], which ΔTm at 100 µM [1] is on record?
A: The ΔTm at 100 µM was 0.5 °C.

Q: What about the ΔTm at 100 µM [2] of the same compound?
A: Its ΔTm at 100 µM is 0 °C.

Q: For `CCN(CC)c1ccc(/C=N/NC(=O)C2CCOCC2)cc1` [Compound 13ob, (E)-N′-(4-(diethylamino)benzylidene)tetrahydro-2H-pyran-4-carbohydrazide], which ΔTm at 25 µM ([1]; 25 μM compound) is on record?
A: The ΔTm at 25 µM was 1.5 °C.

Q: And the ΔTm at 25 µM ([2]; 25 μM compound)?
A: Its ΔTm at 25 µM is -2.7 °C.

Q: Which ΔTm at 50 µM ([1]; 50 μM compound) does the source give for `O=Cc1cccc(F)c1` [Compound 1f, 3-fluorobenzaldehyde] here?
A: Its ΔTm at 50 µM is 4 °C.

Q: And the ΔTm at 50 µM ([2]; 50 μM compound)?
A: The ΔTm at 50 µM was -0.4 °C.

Q: Which “ΔTm (° C.) −FGFR1” value ([1]; 10 μM compound) does the source give for `CCN(CC)c1ccc(C(O)c2cccc(OC(F)(F)F)c2)cc1` (centres unmarked) [Compound 8om, (4-(diethylamino)phenyl)(3-(trifluoromethoxy)phenyl)methano] here?
A: The value was “+0.3 °C”.

Q: What about the “ΔTm (° C.) −FGF2” value ([2]; 10 μM compound) of the same compound?
A: Its value is 0 °C.

Q: With `CCN(CC)c1ccc(C(C)=O)cc1` [Compound 16] as the compound, how does the ΔTm at 25 µM [1] read?
A: The ΔTm at 25 µM was 0.2 °C.

Q: What about the ΔTm at 25 µM [2] of the same compound?
A: The ΔTm at 25 µM was 0 °C.

Q: Which results are given for `CCN(CC)c1ccc(/C=N/N=C/c2ccc(N(CC)CC)cc2)cc1` [Compound 10o, 4,4′-((1E,1′E)-hydrazine-1,2-diylidenebis(methaneylylidene))bis(N,N-diethylaniline)]?
A: ΔTm at 2 µM ([1]; 2 μM compound): 11 °C; ΔTm at 2 µM ([2]; 2 μM compound): -5.2 °C

Q: For `O=Cc1ccccc1F` [Compound 1e], which ΔTm at 100 µM ([1]; 100 μM compound) is on record?
A: Its ΔTm at 100 µM is 0 °C.

Q: And the ΔTm at 100 µM ([2]; 100 μM compound)?
A: Its ΔTm at 100 µM is 0.3 °C.

Q: What does the source list for `CCN(CC)c1ccc(C2N[C@@H](C(=O)O)C(C)(C)S2)cc1` (stereo partly drawn) [Compound 11o, (4S)-2-(4-(diethylamino)phenyl)-5,5-dimethylthiazolidine-4-carboxylic acid]?
A: ΔTm at 50 µM ([1]; 50 μM compound): 2 °C; ΔTm at 50 µM ([2]; 50 μM compound): -4.2 °C

From patent US20240173311A1, “METHODS AND COMPOSITIONS FOR MODULATING FGF ACTIVITY” (Recovery Therapeutics, Inc., priority 2021, published 2024)
